Patent US20060009478A1, “Methods for the treatment of back pain” (priority 2003, published 2006)
Where “and” joins values, the source holds several entries; their conditions need not be identical. Equal entries are not always repeated.

How the values were obtained:
[1] = tested on: patients with moderate to severe chronic pain due to osteoarthritis of the hip or knee; test: Pain intensity (daily diary, 11-point numerical scale), 3-week osteoarthritis study; assay type: in vivo, human; conditions: ITT, LOCF, average of last two days of dosing week
Method: A multicenter, randomized, double-blind, active- and placebo-controlled, dose escalation, clinical study was designed and conducted. […] During a 4- to 7-day washout period, patients stopped taking all of their pain medication other than acetaminophen (500 mg every 4-6 hours PRN (a maximum of 5 caplets per day)).
Pain Intensity was assessed by prompting the patient with the question, “How would you rate your overall pain intensity at this time?”, and the PI score was recorded in the clinic. Pain Intensity was also assessed by prompting the patient with the question, “How would you rate your overall pain intensity during the past 24 hours?”, and a daily PI diary score was recorded by the patient at bedtime. For both Pain Intensity prompts, the response was scored on an 11-point numerical scale (0=no pain and 10=severe pain).
For the efficacy analysis, endpoints were represented and analyzed by week. Missing efficacy data was imputed across weeks using the last-observation-carried-forward (LOCF) method. Thus, the primary procedure for the analysis of efficacy data was based on a LOCF approach.
The daily pain intensity ratings were summarized as follows. For each week, the pain intensity recorded on the last two full days of dosing within the week, restricted to Day 5 or later, was averaged. If only a single observation was available, it was used; otherwise, the endpoint was not defined. The pain intensity averages were represented as both (1) a change from baseline and (2) a percent change from baseline. The baseline value was defined as the average pain intensity over the last two values recorded during the baseline period; if necessary, a single value was used.
For primary analysis of data, the primary efficacy endpoint was the percent change from baseline in pain intensity at Week 3. Percent change in pain intensity was analyzed using ANOVA methods. The ANOVA model included factors for treatment, sex, and their interaction. Additional covariates could be added to the model for exploratory purposes. Pairwise treatment group comparisons were made using contrasts within the ANOVA framework. Testing employed Type III sums of squares. If the assumptions of the parametric tests were not valid, non-parametric tests were used.

IL10 = test: Plasma cytokine concentration, Pointilliste Human Th1/Th2 Cytokine Canvas; assay type: in vivo; conditions: OXY = oxycodone QID, BID/QID = combination drug of oxycodone and naltrexone BID/QID
Method: (§1) Plasma samples from selected subjects in the clinical study were used to assay for the presence and concentration of selected cytokines.
(§2) Plasma samples were analyzed using a commercial cytokine assay from Pointilliste (www.pointilliste.com) to quantify the concentrations of IL2, IL4, IL5, IL6, IL10, IL13, GM-CSF, interferon and TNFα. Plasma samples were separately analyzed for IL1αand IL1β, which were quantitated using a conventional cytokine assay by Pointilliste. The cytokine assay for the quantitation of IL2, IL4, IL5, IL6, IL10, IL13, GM-CSF, interferon and TNFα employed, Pointilliste's Human Th1/Th2 Cytokine Canvas product which contains binding sites for each of these nine cytokines.
(§3) Two measurements (duplicates) for each cytokine were possible for each plasma sample applied to a canvas, since the canvas has two binding sites for each cytokine.
(§4) Fifty-seven frozen human plasma samples containing EDTA as an anticoagulant were thawed on ice and transferred to a sterile 96-deep well polypropylene plate. The plate was centrifuged briefly at 4° C. to clarify the plasma. Aliquots of clarified plasma were removed for cytokine analysis, and the remaining samples in the 96-deep well polypropylene plate were stored at −80° C.
(§5) The aliquots of clarified plasma were transferred to sterile non-protein binding 96-well polypropylene plates to enable parallel processing of the samples. Two different 96 well plates were used, and each received a subsample of the aliquots at different dilutions. Two dilutions (1 in 1 and 1 in 10) of each sample were assayed on two separate human Th1/Th2 cytokine canvases. In order to quantify the cytokine concentrations, standard curves were generated for each dilution. A mixture of 9 cytokines was run on each of the canvases and used to calculate a standard curve, which was used to determine the amount of each cytokine in the samples. The standard curves were plotted with the signal intensity as a function of the cytokine concentration in ng/ml. A CCD camera was used with Pointilliste's Canvas Analysis Tools software to generate data corresponding to cytokine concentrations.

IL13 = test: as above; assay type: in vivo; conditions: OXY = oxycodone QID, BID/QID = combination drug of oxycodone and naltrexone BID/QID
Method: as §1, §2, §3, §4, §5

IL2 = test: as above; assay type: in vivo; conditions: OXY = oxycodone QID, BID/QID = combination drug of oxycodone and naltrexone BID/QID
Method: as §1, §2, §3, §4, §5

IL4 = test: as above; assay type: in vivo; conditions: OXY = oxycodone QID, BID/QID = combination drug of oxycodone and naltrexone BID/QID
Method: as §1, §2, §3, §4, §5

IL6 = test: as above; assay type: in vivo; conditions: OXY = oxycodone QID, BID/QID = combination drug of oxycodone and naltrexone BID/QID
Method: as §1, §2, §3, §4, §5

TNFα = test: as above; assay type: in vivo; conditions: OXY = oxycodone QID, BID/QID = combination drug of oxycodone and naltrexone BID/QID
Method: as §1, §2, §3, §4, §5

interferon gamma = test: as above; assay type: in vivo; conditions: OXY = oxycodone QID, BID/QID = combination drug of oxycodone and naltrexone BID/QID
Method: as §1, §2, §3, §4, §5

[2] = 11-point scale 0=no pain, 10=severe pain
[3] = individual measurements of plasma samples, listed as OXY
[4] = treatment group mean, random sample of subjects

For `COc1ccc2c3c1O[C@H]1C(=O)CC[C@@]4(O)[C@@H](C2)N(C)CC[C@]314` [OXY QID, oxycodone], the “Pain intensity, actual value at Week 1, mean” value ([1]; FEMALE, 11-point scale) was 6.2, the “Pain intensity, actual value at Week 1, median” value ([1]; FEMALE, 11-point scale) was 6.3 and the “Pain intensity, actual value at Week 2, mean” value ([1]; FEMALE, 11-point scale) was 5.9. For the same compound, the “Pain intensity, actual value at Week 2, median” value ([1]; FEMALE, 11-point scale) was 6.3, the “Pain intensity, actual value at Week 3, mean” value ([1]; FEMALE, 11-point scale) was 5.9 and the “Pain intensity, actual value at Week 3, median” value ([1]; FEMALE, 11-point scale) was 6.0. For the same compound, the “Pain intensity, percent change from baseline to Week 1, mean” value [1] was −18.4%, the “Pain intensity, percent change from baseline to Week 1, median” value [1] was −16.7% and the “Pain intensity, percent change from baseline to Week 2, mean” value [1] was −22.9%. For the same compound, the “Pain intensity, percent change from baseline to Week 2, median” value [1] was −20.0%, the “Pain intensity, percent change from baseline to Week 3, median” value [1] was −20.0% and the “Pain intensity, actual value at Week 1, mean” value [1, 2] was 6.1. For the same compound, the “Pain intensity, actual value at Week 1, median” value [1, 2] was 6.0, the “Pain intensity, actual value at Week 2, mean” value [1, 2] was 5.8 and the “Pain intensity, actual value at Week 2, median” value [1, 2] was 6.0. The “Pain intensity, actual value at Week 3, mean” value [1, 2] was 5.6, the “Pain intensity, actual value at Week 3, median” value [1, 2] was 5.5 and the “Pain intensity, percent change from baseline to Week 3, mean” value ([1]; primary efficacy endpoint) was −24.6%. The “Pain intensity, actual value at Week 2, mean” value ([1]; MALE, 11-point scale) was 5.5, the “Pain intensity, actual value at Week 2, median” value ([1]; MALE, 11-point scale) was 5.5 and the “Pain intensity, actual value at Week 3, mean” value ([1]; MALE, 11-point scale) was 5.0. For the same compound, the “Pain intensity, actual value at Week 3, median” value ([1]; MALE, 11-point scale) was 4.5, the “Pain intensity, actual value at Week 1, mean” value ([1]; males, 11-point scale) was 5.9 and the “Pain intensity, actual value at Week 1, median” value ([1]; males, 11-point scale) was 6.0. The IL10 cytokine concentration (IL10; [3]) was 0.07237 ng/mL and 0.2164 ng/mL and 0.2235 ng/mL and 0.2438 ng/mL and 0.2959 ng/mL and 0.3757 ng/mL and 0.9598 ng/mL and 1.236 ng/mL and 1.26 ng/mL and 1.394 ng/mL, the “Mean of IL10 concentrations” value (IL10; [4]) was 0.628 ng/mL and the IL13 cytokine concentration (IL13; [3]) was 2.362 ng/mL and 3.291 ng/mL and 3.392 ng/mL and 0.06466 ng/mL and 0.073 ng/mL and 0.1092 ng/mL and 0.1415 ng/mL and 0.1418 ng/mL and 0.1451 ng/mL and 0.1509 ng/mL and 0.169 ng/mL and 0.2847 ng/mL and 0.3385 ng/mL and 0.37 ng/mL and 0.6256 ng/mL and 0.941 ng/mL and 1.09 ng/mL and 2.079 ng/mL. For the same compound, the “Mean of IL13 concentrations” value (IL13; [4]) was 0.876 ng/mL, the IL2 cytokine concentration (IL2; [3]) was 0.1202 ng/mL and 0.1501 ng/mL and 0.1613 ng/mL and 0.1672 ng/mL and 0.208 ng/mL and 0.2689 ng/mL and 0.3259 ng/mL and 0.4012 ng/mL and 0.4755 ng/mL and 0.5532 ng/mL and 0.7233 ng/mL and 1.583 ng/mL and 1.817 ng/mL and 0.092 ng/mL and the “Mean of IL2 concentrations” value (IL2; [4]) was 0.503 ng/mL. The IL4 cytokine concentration (IL4; [3]) was 0.0907 ng/mL and 0.09132 ng/mL and 0.1379 ng/mL and 0.1411 ng/mL and 0.2369 ng/mL and 0.2651 ng/mL and 0.4655 ng/mL and 0.4725 ng/mL, the “Mean of IL4 concentrations” value (IL4; [4]) was 0.238 ng/mL and the IL6 cytokine concentration (IL6; [3]) was 0.04453 ng/mL and 0.0579 ng/mL and 0.06949 ng/mL and 0.0733 ng/mL and 0.07724 ng/mL and 0.0774 ng/mL and 0.1107 ng/mL and 0.1115 ng/mL and 0.1391 ng/mL and 0.1469 ng/mL and 0.3354 ng/mL and 0.3599 ng/mL and 0.5957 ng/mL and 0.604 ng/mL. For the same compound, the “Mean of IL6 concentrations” value (IL6; [4]) was 0.2 ng/mL, the TNF cytokine concentration (TNFα; [3]) was 0.05312 ng/mL and 0.05316 ng/mL and 0.05332 ng/mL and 0.06095 ng/mL and 0.1469 ng/mL and 0.2 ng/mL and 0.5152 ng/mL and 0.5153 ng/mL and the “Mean of TNF concentrations” value (TNFα; [4]) was 0.2 ng/mL. For the same compound, the IFN cytokine concentration (interferon gamma; [3]) was 0.07226 ng/mL and 0.07442 ng/mL and 0.2197 ng/mL and 0.2407 ng/mL and the “Mean of IFN concentrations” value (interferon gamma; [4]) was 0.152 ng/mL.
